According to PMC11089510 (Journal of Medicinal Chemistry, 2024):
Like-named read-outs stand apart in the source and are kept apart here. Each block holds one molecule with its values, some of them ahead of it.

Columns and labels:
[1] = biological target: T1, NUDT5 (Homo sapiens, UniProt Q9UKK9); experiment: NUDT5 catalytic assay (AMP-Glo); assay type: biochemical; conditions: for NUDT5 inhibition: concentrations of up to 50 μM; for NUDT5 IC50: supplementary CSV
Protocol: (§1) Inhibition activities of the compounds were determined using AMP-Glo system (Promega). The compounds were diluted from 50 μM to 0 μM in a final reaction containing 20 mM HEPES, 100 mM NaCl, 0.5 mM TCEP, 1 mM MgCl2, and 0.1% BSA, pH 7.4. […] The final DMSO concentration was 1% for all reactions. […] The reactions were further incubated with 4 μL of the detection solution for 1 h at rt. Luminescence signals were then measured in a PHERAstar FSX plate reader. Experiments were done in triplicate sets, and data were analyzed by GraphPad Prism 9. Inhibitor dose–response data were normalized to reactions containing vehicle only (1% v/v DMSO, 100% activity) and reactions containing 500 nM TH5427 (6) (1% v/v DMSO, 0% activity). Data are represented as the mean ± SD of two independent biological replicates.

[2] = biological target: T2, recombinant human NUDT14 (Homo sapiens, UniProt O95848); experiment: NUDT14 catalytic assay (AMP-Glo); assay type: biochemical
T2 sequence (O95848 1-222): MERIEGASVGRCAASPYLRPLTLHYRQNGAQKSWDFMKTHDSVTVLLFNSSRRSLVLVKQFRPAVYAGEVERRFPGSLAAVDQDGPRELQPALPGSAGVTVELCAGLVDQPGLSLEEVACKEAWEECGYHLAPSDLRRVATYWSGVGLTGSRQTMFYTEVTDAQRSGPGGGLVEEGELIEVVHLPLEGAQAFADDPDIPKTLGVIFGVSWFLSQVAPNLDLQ
Protocol: as §1

[3] = tested on: BT-474 cells; experiment: Cell viability assay (CellTiter-Glo); assay type: cell-based; conditions: Homo sapiens, 72 h of incubation
Protocol: BT-474 cells were cultivated in DMEM containing 10% FBS at 37 °C and 5% CO2. […] Cells were trypsinized, counted, and diluted to 25,000 cells/mL in culture medium. 40 μL of cell suspension was seeded to each well, and plates were sealed with a breathable film and incubated for 72 h. Cell viability was determined using the CellTiter-Glo reagent following the manufacturer’s instructions (Promega). Luminescence signals were measured in a PHERAstar FS or FSX and analyzed by GraphPad Prism (v.9 or v.10). Data were normalized to DMSO.

[4] = biological target: T3, purified human NUDT14 protein (Homo sapiens, UniProt O95848); experiment: biochemical
T3 construct: 6xHis tag followed by TEV site (N, cleaved yes); made in house; host or cells: Escherichia coli (DE3)
T3 sequence (O95848 1-222): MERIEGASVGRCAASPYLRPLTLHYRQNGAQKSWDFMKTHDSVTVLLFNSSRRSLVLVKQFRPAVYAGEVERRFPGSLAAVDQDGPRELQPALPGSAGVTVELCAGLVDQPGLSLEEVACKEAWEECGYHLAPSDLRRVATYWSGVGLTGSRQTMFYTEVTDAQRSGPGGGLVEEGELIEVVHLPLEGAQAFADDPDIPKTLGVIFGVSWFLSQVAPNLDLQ

[5] = biological target: NUDT16L1 (Homo sapiens, UniProt Q9BRJ7); experiment: biochemical
Chain of NUDT16L1 (Q9BRJ7 whole entry): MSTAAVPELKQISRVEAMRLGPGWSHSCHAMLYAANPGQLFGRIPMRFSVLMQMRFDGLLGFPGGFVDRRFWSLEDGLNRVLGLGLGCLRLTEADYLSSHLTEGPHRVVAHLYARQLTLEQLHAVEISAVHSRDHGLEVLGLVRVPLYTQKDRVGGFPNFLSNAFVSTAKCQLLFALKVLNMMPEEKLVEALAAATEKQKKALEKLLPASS

[6] = biological target: NUDT12 (Homo sapiens, UniProt Q9BQG2); experiment: biochemical
Chain of NUDT12 (Q9BQG2 whole entry): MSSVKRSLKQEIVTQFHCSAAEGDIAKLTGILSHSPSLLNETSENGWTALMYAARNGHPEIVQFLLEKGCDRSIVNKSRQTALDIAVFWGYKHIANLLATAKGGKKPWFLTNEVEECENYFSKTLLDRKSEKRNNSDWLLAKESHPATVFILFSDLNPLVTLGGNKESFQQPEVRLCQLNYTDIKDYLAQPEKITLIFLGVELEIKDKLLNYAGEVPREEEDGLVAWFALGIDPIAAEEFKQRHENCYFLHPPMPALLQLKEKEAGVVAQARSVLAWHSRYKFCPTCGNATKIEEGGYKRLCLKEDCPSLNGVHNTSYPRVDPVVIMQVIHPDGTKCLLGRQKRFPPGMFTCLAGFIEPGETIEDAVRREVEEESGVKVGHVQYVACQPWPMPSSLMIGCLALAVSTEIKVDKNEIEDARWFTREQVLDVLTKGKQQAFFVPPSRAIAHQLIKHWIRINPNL

[7] = biological target: T4, NUDT15 (Homo sapiens, UniProt Q9NV35); experiment: biochemical
T4 sequence (Q9NV35 1-164): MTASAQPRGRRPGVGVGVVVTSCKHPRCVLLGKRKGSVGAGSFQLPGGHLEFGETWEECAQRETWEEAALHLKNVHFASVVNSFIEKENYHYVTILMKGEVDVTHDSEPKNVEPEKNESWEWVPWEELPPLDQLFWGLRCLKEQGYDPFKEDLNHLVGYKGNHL

[8] = biological target: NUDT7 (Homo sapiens, UniProt P0C024); experiment: biochemical
Chain of NUDT7 (P0C024 whole entry): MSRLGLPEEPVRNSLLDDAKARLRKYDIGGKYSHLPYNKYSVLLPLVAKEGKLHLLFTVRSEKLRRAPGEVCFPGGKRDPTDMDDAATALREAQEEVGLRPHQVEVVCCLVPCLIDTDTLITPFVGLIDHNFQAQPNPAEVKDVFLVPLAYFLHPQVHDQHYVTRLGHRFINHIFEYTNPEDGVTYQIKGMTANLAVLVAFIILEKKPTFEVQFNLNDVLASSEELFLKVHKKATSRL

[9] = biological target: T5, NUDT9 (Homo sapiens, UniProt Q9BW91); experiment: biochemical
T5 sequence (Q9BW91 1-350): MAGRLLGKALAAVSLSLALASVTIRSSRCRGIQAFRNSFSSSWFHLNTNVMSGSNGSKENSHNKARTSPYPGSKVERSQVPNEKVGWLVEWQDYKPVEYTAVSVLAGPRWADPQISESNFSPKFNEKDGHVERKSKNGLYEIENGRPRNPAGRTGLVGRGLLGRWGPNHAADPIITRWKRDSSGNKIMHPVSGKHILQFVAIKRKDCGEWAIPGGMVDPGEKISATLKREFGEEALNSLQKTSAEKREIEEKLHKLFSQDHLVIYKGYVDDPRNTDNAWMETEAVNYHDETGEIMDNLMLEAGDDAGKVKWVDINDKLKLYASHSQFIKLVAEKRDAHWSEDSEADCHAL

[10] = biological target: T6, NUDT18 (Homo sapiens, UniProt Q6ZVK8); experiment: biochemical
T6 sequence (Q6ZVK8 1-323): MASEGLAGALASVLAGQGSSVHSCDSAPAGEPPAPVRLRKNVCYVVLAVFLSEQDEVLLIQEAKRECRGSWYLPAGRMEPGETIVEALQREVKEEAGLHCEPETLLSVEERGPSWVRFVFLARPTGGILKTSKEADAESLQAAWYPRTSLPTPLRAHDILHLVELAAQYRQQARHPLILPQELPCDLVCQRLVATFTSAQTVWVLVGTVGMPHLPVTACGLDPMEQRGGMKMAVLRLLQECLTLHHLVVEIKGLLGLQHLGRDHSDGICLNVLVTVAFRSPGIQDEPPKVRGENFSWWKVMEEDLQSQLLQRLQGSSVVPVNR

[11] = biological target: NUDT1 (Homo sapiens, UniProt P36639); experiment: biochemical
[12] = biological target: NUDT16 (Homo sapiens, UniProt Q96DE0); experiment: biochemical
Chain of NUDT16 (Q96DE0 whole entry): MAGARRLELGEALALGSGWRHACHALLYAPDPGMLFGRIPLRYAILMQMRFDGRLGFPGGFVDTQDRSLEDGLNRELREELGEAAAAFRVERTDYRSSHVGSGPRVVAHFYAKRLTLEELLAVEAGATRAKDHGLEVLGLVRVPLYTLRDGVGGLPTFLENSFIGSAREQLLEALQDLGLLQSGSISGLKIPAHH

[13] = biological target: T7, NUDT17 (Homo sapiens, UniProt P0C025); experiment: biochemical
T7 sequence (P0C025 1-328): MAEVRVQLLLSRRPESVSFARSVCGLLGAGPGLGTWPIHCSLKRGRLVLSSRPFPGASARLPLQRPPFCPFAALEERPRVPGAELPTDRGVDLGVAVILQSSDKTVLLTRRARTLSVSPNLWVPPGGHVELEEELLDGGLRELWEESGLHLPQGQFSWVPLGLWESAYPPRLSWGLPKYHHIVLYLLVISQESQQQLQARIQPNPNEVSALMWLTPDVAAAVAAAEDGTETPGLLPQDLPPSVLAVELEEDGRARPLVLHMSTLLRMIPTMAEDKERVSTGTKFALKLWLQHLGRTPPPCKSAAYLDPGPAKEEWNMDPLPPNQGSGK

[14] = biological target: T1, NUDT5; experiment: biochemical; design: 6xHis tag followed by TEV site (N, cleaved yes); made in house; host or cells: Escherichia coli (DE3)
[15] = biological target: NanoLuc-NUDT5 in HEK293 cells (Homo sapiens, UniProt Q9UKK9); experiment: NUDT5 live-cell NanoBRET target engagement assay; assay type: cell-based; conditions: 2.5 nM CBH-004 tracer, 2 h
Protocol: Donor and acceptor signals were measured in a PHERAstar FSX or FS plate reader and analyzed by GraphPad Prism (v.9 or v.10). […] Data were then normalized to DMSO.

[16] = biological target: HiBiT-NUDT14 in intact HEK293 cells (Homo sapiens, UniProt O95848); experiment: HiBiT-NUDT14 cellular thermal shift assay (CETSA); assay type: cell-based
Protocol: The Nano-Glo HiBiT lytic detection system was used following the manufacturer’s instructions (Promega). In brief, 400,000 HEK293 cells/mL were reverse-transfected with N-terminal HiBiT tagged NUDT14 using FuGENE transfection reagent (Promega). After 24 h of incubation, cells were trypsinized and resuspended at 400,000 cells/mL in assay medium. The cells were divided into compound and untreated (DMSO) groups and treated accordingly. Ten μL of cells were seeded into each well in a 384-well white PCR plate and incubated for 1 h. After incubation, the samples were heated in a PCR thermocycler at the desired temperature gradient. The plate was allowed to stand for 5 min at rt, and 10 μL of Nano-Glo HiBiT lytic mix was added into each well. The signals were measured in a PHERAstar FSX and analyzed by GraphPad Prism (v.9 or v.10).

[17] = biological target: endogenous NUDT5 (Homo sapiens, UniProt Q9UKK9); experiment: Affinity pull-down with Western blot for NUDT5; assay type: binding; conditions: affinity matrix, cell lysate
Protocol: When reaching about 80% confluency, cells were harvested, washed with PBS, and frozen at −80 °C. Lysates were generated by adding 3× pellet volume of Buffer A (50 mM tris pH 7.5, 0.8% v/v NP-40, 5% v/v glycerol, 1.5 mM MgCl2, 100 mM NaCl, 25 mM NaF, 1 mM Na3VO4, 1 mM PMSF, 1 mM DTT, 10 μg/mL TLCK, 1 μg/mL Leupeptin, 1 μg/mL Aprotinin, 1 μg/mL soybean trypsin) supplemented with 1 μL/mL of benzonase. To facilitate lysis, crude lysate was drawn 10 times with a needle and incubated for 30 min on ice before clearing by centrifugation.
Affinity matrices were washed 4 times with 1 mL Buffer A, and proteins were eluted 2× with 50 μL of 2× Laemmli buffer containing 25 mM DTT in PBS for 5 min at 95 °C.

[18] = biological target: the molecule itself; experiment: crystal structure; NUDT14 (20 mg/mL) cocrystallised with compound 9 at a molar ratio of 1:5; 0.2 M MgCl2, 0.1 M bis-tris pH 6.5, 25% PEG3350; sitting drop, 4 °C; dimer of chains A and B
[19] = read-out: NUDT5 IC50, AMP-Glo, 1 nM NUDT5, 10 μM ADPr, 20 min, rt
[20] = 1 nM NUDT14, 10 μM ADPr, 1 h, rt

Molecule: C=CC(=O)N1CCC[C@@H](n2nc(-c3ccc(Oc4ccccc4)cc3)c3c(N)ncnc32)C1 [Compound 1, ibrutinib, reference compound]
- IC50 [1, 19]: 837 ± 329 nM
- IC50 [2, 20]: 990 ± 110 nM
- IC50 [3]: 27 ± 11 nM

Molecule: C=CC(=O)N1CCC[C@@H](n2nc(-c3ccc(Oc4ccccc4)cc3)c3c(N)ncnc32)C1 [Compound 1, ibrutinib]
- Kd [4]: 1900 ± 500 nM
- Kd [5]: > 100000 nM
- Kd [6]: > 100000 nM
- Kd [7]: > 100000 nM
- Kd [8]: > 100000 nM
- Kd [9]: > 100000 nM
- Kd [10]: > 100000 nM
- Kd [11]: 3500 ± 280 nM
- Kd [12]: > 100000 nM
- Kd [13]: > 100000 nM
- Kd [14]: 209 ± 62 nM

- NUDT5 inhibition [1]: did not show any inhibition
- NUDT5 IC50 ([1]; AMP-Glo): not active
Molecule: CC#CC(=O)N1CCC[C@H]1c1nc(-c2ccc(C(=O)Nc3ccccn3)cc2)c2c(N)nccn12 [Compound 2, acalabrutinib, reference compound]

Molecule: CC#CC(=O)N[C@H]1CCCN(c2c(F)cc(C(N)=O)c3[nH]c(C)c(C)c23)C1 [Compound 3, branebrutinib, reference compound]
- NUDT5 inhibition [1]: did not show any inhibition
- NUDT5 IC50 ([1]; AMP-Glo): not active

- EC50 [15]: 4 ± 1 nM
- NUDT14 stabilisation compared to DMSO [16]: does not stabilise NUDT14
Molecule: Cn1c(=O)c2c(nc(N3CCNCC3)n2Cc2nnc(-c3ccc(Cl)c(Cl)c3)o2)n(C)c1=O [Compound 6, TH5427]

- binding to endogenous NUDT5 (pull-down, Western blot) [17]: retained binding
Molecule: Cn1c(=O)c2c(nc(N3CCN(CCCCN)CC3)n2Cc2nnc(-c3ccc(Cl)c(Cl)c3)o2)n(C)c1=O.O=C(O)C(F)(F)F [Compound 7, 4-(4-(7-((5-(3,4-Dichlorophenyl)-1,3,4-oxadiazol-2-yl)methyl)-1,3-dimethyl-2,6-dioxo-2,3,6,7-tetrahydro-1H-purin-8-yl)piperazin-1-yl)butan-1-aminium Trifluoroacetate]

- IC50 [2, 20]: 263 ± 31 nM
Molecule: Cn1nc(-c2ccc(Oc3ccccc3)cc2)c2c(N)ncnc21 [Compound 10, 1-Methyl-3-(4-phenoxyphenyl)-1H-pyrazolo[3,4-d]pyrimidin-4-amine]

- IC50 [2, 20]: 519 ± 84 nM
Molecule: Nc1ncnc2[nH]nc(-c3ccc(Oc4ccccc4)cc3)c12 [Compound 11, 3-(4-Phenoxyphenyl)-1H-pyrazolo[3,4-d]pyrimidin-4-amine]

- IC50 [1, 19]: > 50000 nM
- NUDT5 IC50 ([1]; AMP-Glo): not active
- IC50 [2, 20]: > 50000 nM
- NUDT14 IC50 ([2]; supplementary CSV): not active
Molecule: C=CC(=O)N1CC=C(c2nn(C3CCN(C)CC3)c3ncnc(N)c23)CC1 [Compound 12, 1-(4-(4-Amino-1-(1-methylpiperidin-4-yl)-1H-pyrazolo[3,4-d]pyrimidin-3-yl)-3,6-dihydropyridin-1(2H)-yl)prop-2-en-1-one]

- IC50 [1]: > 50000 nM
- NUDT5 IC50 ([1]; AMP-Glo): not active
- IC50 [2, 20]: 3720 ± 190 nM
Molecule: C=CC(=O)N1CCC=C(c2nn(C3CCN(C)CC3)c3ncnc(N)c23)C1 [Compound 13, 1-(5-(4-Amino-1-(1-methylpiperidin-4-yl)-1H-pyrazolo[3,4-d]pyrimidin-3-yl)-3,6-dihydropyridin-1(2H)-yl)prop-2-en-1-one]

- IC50 [2, 20]: 1640 ± 140 nM
Molecule: C=CC(=O)NCc1ccc(-c2nn(C3CCN(C)CC3)c3ncnc(N)c23)cc1 [Compound 14, N-(4-(4-Amino-1-(1-methylpiperidin-4-yl)-1H-pyrazolo[3,4-d]pyrimidin-3-yl)benzyl)acrylamide]

- IC50 [1]: > 50000 nM
- NUDT5 IC50 ([1]; AMP-Glo): not active
- IC50 [2, 20]: > 50000 nM
- NUDT14 IC50 [2, 20]: inactive
Molecule: C=CC(=O)N1CCC(c2nn(C3CCN(C)CC3)c3ncnc(N)c23)CC1 [Compound 15, 1-(4-(4-Amino-1-(1-methylpiperidin-4-yl)-1H-pyrazolo[3,4-d]pyrimidin-3-yl)piperidin-1-yl)prop-2-en-1-one]

B1: NUDT14 (enzyme, human, UniProt O95848 1-222, looked up)
chain: MERIEGASVGRCAASPYLRPLTLHYRQNGAQKSWDFMKTHDSVTVLLFNSSRRSLVLVKQFRPAVYAGEVERRFPGSLAAVDQDGPRELQPALPGSAGVTVELCAGLVDQPGLSLEEVACKEAWEECGYHLAPSDLRRVATYWSGVGLTGSRQTMFYTEVTDAQRSGPGGGLVEEGELIEVVHLPLEGAQAFADDPDIPKTLGVIFGVSWFLSQVAPNLDLQ
- stoichiometry N [18]: 2
